Laboratory results from US8808715B1, “Methods and compositions for modulating keratinocyte function” (Georgia Regents Research Institute, Inc, priority 2004, dated 2014).

Columns and labels:
[1] = tested on: primary epidermal keratinocytes; experiment: Radiolabeled phosphatidylglycerol formation in intact keratinocytes; assay type: cell-based, mouse; settings: 100 nM PMA, 30 minutes with [3H]glycerol; p<0.01
Protocol: Primary epidermal keratinocytes were prepared from 1-3-day old neonatal ICR mice after trypsin flotation of the skin and mechanical separation of the epidermis from the dermis. The epidermal cells were released by scraping, collected by centrifugation and plated in 6-well dishes in a medium consisting of MEM containing 25 μM calcium, 2% dialyzed fetal bovine serum, 2 mM glutamine, 5 ng/mL EGF, ITS (6.25 μg/mL insulin+6.25 μg/mL transferrin+6.25 ng/mL selenious acid+5.35 μg/mL linoleic acid+1.25% bovine serum albumin), 100 U/mL penicillin, 100 μg/mL streptomycin and 0.25 μg/mL fungizone. After an overnight incubation, the cells were refed with serum-free keratinocyte medium (SFKM), in which 2% dialyzed fetal bovine serum was replaced with 90 μg/mL bovine pituitary extract. Cells were refed with fresh medium every 1-3 days.
For the PLD assay cultured primary keratinocytes were labeled for 20-24 hours with 2.5 μCi/ml [^3H] oleic acid. The cells were then exposed to vehicle or 100 nM PMA in the presence of 0.5% ethanol for 30 minutes. To measure the formation of radiolabeled phosphatidylglycerol, cells were treated for 24 hours with SFKM containing vehicle, 250 nM 1,25-dihydroxyvitamin D3 or 125 μM calcium and then labeled for an additional 30 minutes with 1-2.5 μCi/mL [^3H] or 0.4-0.5 μCi/mL [^14C]glycerol. For experiments investigating the extracellular calcium dependence of PG formation, cells were incubated for 24 hours in SFKM containing various calcium concentrations prior to the addition of 5 μCi/mL [^3H]glycerol for 30 minutes. In some cases, cells were stimulated with 25 μM calcium (control)—or 125 μM calcium-containing SFKM for 24 hours prior to the addition of [^14C]glycerol in the presence and absence of 1% ethanol. To measure phosphatidylglycerol formation in response to PMA, unlabeled cells were stimulated with 100 nM PMA in the presence of radiolabeled glycerol, as above. Reactions were terminated and the radiolabeled phosphatidylalcohol extracted, separated by thin-layer chromatography and quantified as described by Bollag (1998), referenced above.

primary keratinocytes = experiment: [3H]Glycerol uptake; assay type: cell-based, mouse; settings: 30 minutes pretreatment with 100 nM PMA, then [3H]glycerol 5 minutes
Protocol: Confluent primary keratinocytes were incubated for 30, 60, 90, 120, 300 or 600 seconds with SFKM containing 20 mM HEPES (for additional pH buffering), 1 μCi/mL [^3H]glycerol and 0.1% DMSO (control) or 100 nM PMA. Reactions were terminated by washing three times with ice-cold phosphate-buffered saline lacking divalent cations. The cells were subsequently solubilized in 0.3 M NaOH and aliquots of this extract subjected to liquid scintillation counting. Counts obtained from duplicate samples at each time point were averaged and graphed, and a linear equation was determined for each condition. Correlation coefficients obtained were typically 0.99 or greater (mean correlation coefficient for control was 0.992±0.002 and for PMA, 0.994±0.001). Slopes obtained from multiple experiments were averaged and analyzed statistically for significant differences between conditions.
The linearity of glycerol uptake determined above allowed measurement of uptake at a single time point to determine the effects of other treatments on this process. Thus, confluent keratinocytes were preincubated for 30 minutes with 0.1% DMSO (control) or 100 nM PMA prior to measuring [^3H]glycerol uptake as above but at 5 minutes only. Similarly, near-confluent primary keratinocytes were incubated for 24 hours with SFKM containing various calcium concentrations prior to measurement of radiolabeled glycerol uptake for 5 minutes.
Near-confluent keratinocyte cultures were incubated for 24 hours in SFKM (25 μM calcium) or SFKM containing 125 μM calcium (125 μM Ca^2+-SFKM) and the glycerol uptake assay performed as previously described in Zheng & Bollag (2003). Briefly, cells were incubated with SFKM containing 20 mM HEPES (for additional pH buffering) and 1 μCi/mL [^3H] glycerol for 5 minutes, since it has previously been shown that this time point is in the linear range of [^3H]glycerol uptake (Zheng & Bollag (2003). Reactions were terminated by rapidly washing three times with ice-cold phosphate-buffered saline lacking divalent cations (PBS-). Cells were then solubilized in 0.3 M NaOH and [^3H]glycerol uptake quantified by liquid scintillation spectroscopy.

PLD = PLD activity (radiolabeled phosphatidylethanol formation in [3H]oleate-prelabeled keratinocytes); assay type: cell-based, mouse; settings: 100 nM PMA, 30 minutes, 0.5% ethanol; p<0.02
Protocol: Near-confluent keratinocytes were incubated without radiolabel (for phosphatidylglycerol production) or pre-labeled with 2.5 μCi/mL [^3H]oleate (for phosphatidylethanol formation) for 20-24 hours. The cells were then stimulated for 30 minutes with vehicle (0.05-0.1% DMSO; Con) or 100 nM PMA in the presence of [^3H]glycerol (for phosphatidylglycerol production), or in the presence of 0.5% ethanol (for phosphatidylethanol formation). Reactions were terminated by the addition of 0.2% SDS (±5 mM EDTA) and radiolabeled phosphatidylglycerol (PG), or phosphatidylethanol (PEt) was extracted, separated by thin-layer chromatography and quantified. Values are expressed as -fold over control and represent the means±SEM of three separate experiments performed in duplicate or triplicate; *p<0.02 versus the appropriate control by an unpaired Student's t-test.
For the PLD assay cultured primary keratinocytes were labeled for 20-24 hours with 2.5 μCi/ml [^3H] oleic acid. The cells were then exposed to vehicle or 100 nM PMA in the presence of 0.5% ethanol for 30 minutes. […] Reactions were terminated and the radiolabeled phosphatidylalcohol extracted, separated by thin-layer chromatography and quantified as described by Bollag (1998), referenced above.

ICR CD1 mice = experiment: Wound healing of full-thickness skin punch biopsies; assay type: in vivo, mouse; settings: topical; 2M glycerol in water, or 100 μg/mL phosphatidylglycerol liposomes in PBS-
Description: This example presents recent data on the effects of glycerol and phosphatidylglycerol treatment on wound healing obtained in ICR CD1 mice. Two full-thickness skin punch biopsies of˜4 mm were made on the backs of a total of sixteen mice. […] The rate of wound healing was then followed over four days by digital photography and computer image analysis.

[2] = tested on: rapidly dividing keratinocytes; experiment: Assay of DNA synthesis ([3H]thymidine incorporation) in rapidly dividing keratinocytes; assay type: cell-based; settings: 24 hours
Protocol: Keratinocytes were prepared from ICR CD-I outbred mice in accordance with a protocol approved by the Institutional Animal Care and Use Committee. Briefly, the skins were harvested and incubated overnight in 0.25% trypsin at 4° C. The epidermis and dermis were separated and basal keratinocytes scraped from the underside of the epidermis. The cells were collected by centrifugation and incubated overnight in an atmosphere of 95% air/5% carbon dioxide at 37° C. in plating medium as described in Dodd M E, Ristich V L, Ray S, Lober R M, Bollag W B (2005) Regulation of protein kinase D during differentiation and proliferation of primary mouse keratinocytes. J Invest Dermatol 125:294-306, incorporated herein by reference. The plating medium was replaced with serum-free keratinocyte medium (SFKM) also as in Dodd, et al., and the cells were refed every 1-2 days with fresh medium until use.
[^3H]Thymidine incorporation into DNA was determined as a measure of DNA synthesis as previously described by Griner, et al., above. Near-confluent keratinocyte cultures were incubated for 24 hours in SFKM containing the indicated additions. PG was added in the form of liposomes prepared by bath sonication of dried PG in SFKM to make a stock solution of 2 mg/mL. [^3H]Thymidine at a final concentration of 1 μCi/mL was then added to the cells for an additional 1-hour incubation. Reactions were terminated by washing with PBS- and macromolecules precipitated with ice-cold 5% trichloroacetic acid. Cells were solubilized in 0.3 M NaOH and the radioactivity incorporated into DNA quantified by liquid scintillation spectroscopy.
[^3H]Thymidine incorporation was used as a measure of DNA synthesis and was performed as described in Example 2. Liposomes containing PG and functional derivatives thereof were prepared by bath sonication as described in Example 2, with the exception that different concentrations of material were employed.

PLD-2 = biological target: T1, PLD-2 (Homo sapiens, UniProt O14939); experiment: In vitro assay of phosphatidylglycerol formation by PLD-2 (transphosphatidylation); assay type: biochemical
T1 construct: purchased Onyx Pharmaceuticals; host or cells: Sf9 insect cells (membrane preparation)
T1 sequence (O14939 whole entry, species assumed): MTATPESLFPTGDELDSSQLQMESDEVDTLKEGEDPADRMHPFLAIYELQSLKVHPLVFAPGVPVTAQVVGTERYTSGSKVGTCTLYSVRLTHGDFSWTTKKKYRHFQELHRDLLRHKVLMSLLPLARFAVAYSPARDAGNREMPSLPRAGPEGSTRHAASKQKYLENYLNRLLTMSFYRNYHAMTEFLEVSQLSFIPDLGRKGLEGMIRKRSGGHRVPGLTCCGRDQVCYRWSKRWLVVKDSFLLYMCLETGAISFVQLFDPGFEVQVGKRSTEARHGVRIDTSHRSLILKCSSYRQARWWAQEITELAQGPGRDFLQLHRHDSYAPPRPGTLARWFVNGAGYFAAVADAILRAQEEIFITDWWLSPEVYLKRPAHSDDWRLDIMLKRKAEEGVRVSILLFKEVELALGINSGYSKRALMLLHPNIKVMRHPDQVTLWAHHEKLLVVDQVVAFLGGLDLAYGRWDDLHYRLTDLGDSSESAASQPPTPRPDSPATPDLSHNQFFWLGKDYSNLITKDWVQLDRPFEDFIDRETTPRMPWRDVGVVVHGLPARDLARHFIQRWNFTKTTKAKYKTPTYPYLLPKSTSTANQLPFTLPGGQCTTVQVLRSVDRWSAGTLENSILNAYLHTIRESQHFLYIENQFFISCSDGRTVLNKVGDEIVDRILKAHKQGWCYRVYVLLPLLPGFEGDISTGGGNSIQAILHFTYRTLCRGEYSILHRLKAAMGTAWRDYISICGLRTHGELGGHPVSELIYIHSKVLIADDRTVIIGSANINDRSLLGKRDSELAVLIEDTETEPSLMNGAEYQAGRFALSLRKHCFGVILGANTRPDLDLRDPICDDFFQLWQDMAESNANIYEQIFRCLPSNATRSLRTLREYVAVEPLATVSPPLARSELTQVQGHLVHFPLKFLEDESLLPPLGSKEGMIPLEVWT
Protocol: FIGS. 5 A and B illustrate that glycerol serves as a substrate for phospholipase D in the transphosphatidylation reaction in vitro. Liposomes were prepared from [^3H-dipalmitoyl]phosphatidylcholine, phosphatidylethanolamine, phosphatidylcholine and phosphatidylinositol 4,5-bisphosphate by sonication. Glycerol at the indicated concentrations in the absence (A) or presence of 1% ethanol (B) was added to the reaction mix. Reactions were initiated by the addition of Sf9 PLD2-overexpressing membranes (1 μg protein), incubated for 30 minutes at 37° C. and terminated by the addition of 0.2% SDS (±5 mM EDTA). Lipids were extracted, separated, and quantified. The figure is representative of at least two additional experiments. There was some variability in the absolute levels of phosphatidic acid (PA), PG and phosphatidylethanol (PEt) formed, likely due to variations in the extent of formation of multilamellar vesicles during sonication.
PLD-2 activity was measured in vitro with [^3H-palmitoyl]phosphatidylcholine as substrate. […] Lipids were extracted according to the method of Bligh and Dyer and radiolabeled phospholipids separated and quantified, as described in W. B. Bollag, “Measurement of phospholipase D activity, Methods” Mol. Biol. 105 (1998) 151-160, incorporated herein by reference.

keratin 5 promoter = experiment: Co-transfection analysis, keratin 5 promoter-luciferase reporter; assay type: cell-based, mouse; settings: glycerol 0.2%, 24 hours
Protocol: FIGS. 15A-B illustrate that glycerol, but not xylitol or sorbitol, inhibits DNA synthesis and enhances the inhibitory effect of an elevated extracellular Ca^2+ concentration. (A) Near-confluent keratinocytes were incubated for 24 hours with 0.02 or 0.1% glycerol and DNA synthesis measured as the incorporation of [^3H] thymidine incorporation into DNA. (B) Near-confluent keratinocytes were incubated for 24 hours with the indicated concentrations of glycerol (G, squares) or equivalent concentrations of xylitol (X, circles) in SFKM containing 25 μM (control; open symbols) or 125 μM Ca^2+ (Ca^2+; closed symbols). (C) Near-confluent keratinocytes were incubated for 24 hours with the indicated concentrations of glycerol (G) or equivalent concentrations of sorbitol (S, triangles) in SFKM containing 25 μM (control; open symbols) or 125 μM Ca^2+ (Ca^2+; closed symbols) for 24 hours. [^3H]Thymidine incorporation into DNA was then determined. Values represent the means±SEM of 4 to 5 separate experiments performed in duplicate; *p<0.05, **p<0.01 versus the control value, †p<0.05 versus the value in the presence of Ca^2+ alone. […] After 24 hours cells were refed with medium containing no addition (control) or 0.2% glycerol for an additional 24 hours. Luciferase activity was then measured using a Dual Luciferase kit as directed by the manufacturer. […] The blots were quantified using the Kodak molecular imaging software. […]
The keratin 5 and keratin 10 promoter-luciferase constructs were provided by of Dr. Bogi Andersen (University of California, Irvine, Calif.); the involucrin promoter-luciferase construct was provided by Dr. Daniel Bikle (University of California, San Francisco, Calif.). […] Luciferase activity was then measured using the Dual Luciferase Reporter Assay kit (Promega, Madison, Wis.) as directed by the manufacturer.

AQP3 null mutant mouse = settings: studies of the AQP3 null mutant mouse; cited from earlier work

| Compound | PG production [1] | glycerol uptake (primary keratinocytes) | PLD activity (radiolabeled phosphatidylethanol formation) (PLD) | rate of wound healing (percentage on day 4 relative to day 1) (ICR CD1 mice) | effect on DNA synthesis in presence of 125 μM Ca2+ ([2]; 125 μM Ca2+ medium) | effect on DNA synthesis ([3H]thymidine incorporation into DNA) ([2]; control (25 μM Ca2+) medium) | lowest concentration that significantly inhibited DNA synthesis ([2]; 0.02% = 2.73 mM) [%] | formation of PG from phosphatidylcholine (glycerol as substrate for transphosphatidylation) (PLD-2; PLD2-overexpressing Sf9 membranes, 30 minutes at 37° C.) | competition with ethanol in the transphosphatidylation reaction (PLD-2; in presence of 1% ethanol) | reduction in keratin 5 promoter activity (keratin 5 promoter; empty vector) [%] | reduction in keratin 5 promoter activity (keratin 5 promoter; keratinocytes transfected with AQP3) [%] | correction of the epidermal phenotype of the knockout model (AQP3 null mutant mouse) |
| --- | --- | --- | --- | --- | --- | --- | --- | --- | --- | --- | --- | --- |
| CCCCCCCCCCCCCC(=O)O[C@@H]1[C@@H](C)[C@@]2(O)[C@@H](C=C(CO)C[C@]3(O)C(=O)C(C)=C[C@@H]23)[C@@H]2C(C)(C)[C@]12OC(C)=O [PMA, Phorbol 12-myristate 13-acetate] | decrease in PG production | decrease in glycerol uptake | large increase in PLD activity | – | – | – | – | – | – | – | – | – |
| OCC(O)CO [glycerol] | – | – | – | improved the rate of wound healing | enhanced the inhibitory effect of 125 μM Ca^2+ | inhibited DNA synthesis | 0.02 | PLD2 catalyzed the formation of PG from phosphatidylcholine in the presence of glycerol | could compete with the primary alcohol ethanol to generate PG in place of phosphatidylethanol | ~9 | ~47 | could correct the epidermal phenotype |
